Assay [1] has as its target T1, Neuropilin-1 (Homo sapiens, UniProt O14786). The experiment in a line: Inhibition of recombinant human biotinylated VEGF-165A expressed in HEK293 cells binding to immobilized recombinant full length human FC-tagged NRP1 (chimera active) expressed in HEK293 cells at 50 uM using TMB as substrate incubated for 2 hrs followed by substrate addition by competitive ELISA relative to control. Background: ELISA stands for enzyme-linked immunosorbent assay.

For assay [2], the target named is T1, Neuropilin-1. As to the kind of experiment: Inhibition of recombinant human biotinylated VEGF-165A expressed in HEK293 cells binding to immobilized recombinant full length human FC-tagged NRP1 (chimera active) expressed in HEK293 cells using TMB as substrate incubated for 2 hrs followed by substrate addition by competitive ELISA.
Assay [3] addresses T1, Neuropilin-1. As to the kind of experiment: Inhibition of recombinant human biotinylated VEGF-165A expressed in HEK293 cells binding to immobilized recombinant full length human FC-tagged NRP1 (chimera active) expressed in HEK293 cells at 11 uM using TMB as substrate incubated for 2 hrs followed by substrate addition by competitive ELISA relative to control.
For assay [4], the target named is Vascular endothelial growth factor receptor 2 (Homo sapiens) (UniProt P35968). As to the kind of experiment: Inhibition of recombinant human biotinylated VEGF-165A expressed in HEK293 cells binding to FC-tagged VEGFR2 (unknown origin) using TMB as substrate incubated for 2 hrs followed by substrate addition by competitive ELISA.
Chain of Vascular endothelial growth factor receptor 2 (Homo sapiens) (P35968 whole entry): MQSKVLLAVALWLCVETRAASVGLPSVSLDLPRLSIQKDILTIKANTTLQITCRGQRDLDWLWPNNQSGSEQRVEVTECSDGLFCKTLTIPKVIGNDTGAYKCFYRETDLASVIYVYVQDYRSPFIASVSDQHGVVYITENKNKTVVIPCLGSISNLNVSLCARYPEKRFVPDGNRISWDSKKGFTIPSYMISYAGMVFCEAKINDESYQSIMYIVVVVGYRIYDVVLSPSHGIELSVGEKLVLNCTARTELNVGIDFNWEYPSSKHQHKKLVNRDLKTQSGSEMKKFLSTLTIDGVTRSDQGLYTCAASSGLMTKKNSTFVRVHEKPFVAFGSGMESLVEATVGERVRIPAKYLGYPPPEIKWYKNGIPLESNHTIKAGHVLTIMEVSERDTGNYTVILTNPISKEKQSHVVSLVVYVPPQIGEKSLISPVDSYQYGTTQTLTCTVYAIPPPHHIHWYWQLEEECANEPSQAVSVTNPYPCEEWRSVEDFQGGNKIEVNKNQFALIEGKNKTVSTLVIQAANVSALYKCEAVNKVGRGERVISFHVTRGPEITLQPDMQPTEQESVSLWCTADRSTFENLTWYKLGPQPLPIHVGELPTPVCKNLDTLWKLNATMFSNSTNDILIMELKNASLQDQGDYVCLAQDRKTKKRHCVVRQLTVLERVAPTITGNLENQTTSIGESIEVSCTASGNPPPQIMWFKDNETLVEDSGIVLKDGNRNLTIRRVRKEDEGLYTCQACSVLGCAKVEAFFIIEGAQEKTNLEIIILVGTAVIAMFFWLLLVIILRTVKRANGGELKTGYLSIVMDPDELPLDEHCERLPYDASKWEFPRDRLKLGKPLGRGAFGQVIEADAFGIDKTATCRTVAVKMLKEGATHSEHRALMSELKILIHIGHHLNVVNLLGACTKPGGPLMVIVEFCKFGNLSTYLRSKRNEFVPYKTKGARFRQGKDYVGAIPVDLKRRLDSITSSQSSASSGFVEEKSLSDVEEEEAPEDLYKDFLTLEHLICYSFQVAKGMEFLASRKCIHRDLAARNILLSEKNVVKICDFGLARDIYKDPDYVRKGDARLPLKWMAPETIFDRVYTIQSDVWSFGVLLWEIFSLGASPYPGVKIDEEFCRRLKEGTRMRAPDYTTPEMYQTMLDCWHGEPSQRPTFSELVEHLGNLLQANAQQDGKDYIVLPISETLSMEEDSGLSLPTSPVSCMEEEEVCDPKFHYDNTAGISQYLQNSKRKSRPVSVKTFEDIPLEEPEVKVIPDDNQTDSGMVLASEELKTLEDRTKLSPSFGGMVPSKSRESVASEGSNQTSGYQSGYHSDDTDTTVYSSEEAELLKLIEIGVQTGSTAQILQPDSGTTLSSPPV
Assay [5] has as its target T1, Neuropilin-1. As to the kind of experiment: Inhibition of biotinylated […] binding to NRP1 (unknown origin) measured after 2 hrs chemiluminescence analysis.
The target of assay [6] is T1, Neuropilin-1. The experiment in a line: Inhibition of biotinylated VEGF-165A binding to NRP1 (unknown origin) at 10 uM measured after 2 hrs chemiluminescence analysis relative to control.

Each structure is given as a SMILES string. pIC50: −log10 of the molar value. Calls of active or inactive are those of the source. The calls are words filed in the database; no cut-off is given here.

Broadly, the inhibition is the share of the control response that was lost under treatment. What is called pIC50 is the IC50 on a negative log10 scale, so that one unit is a factor of ten.

T1 sequence (O14786 whole entry): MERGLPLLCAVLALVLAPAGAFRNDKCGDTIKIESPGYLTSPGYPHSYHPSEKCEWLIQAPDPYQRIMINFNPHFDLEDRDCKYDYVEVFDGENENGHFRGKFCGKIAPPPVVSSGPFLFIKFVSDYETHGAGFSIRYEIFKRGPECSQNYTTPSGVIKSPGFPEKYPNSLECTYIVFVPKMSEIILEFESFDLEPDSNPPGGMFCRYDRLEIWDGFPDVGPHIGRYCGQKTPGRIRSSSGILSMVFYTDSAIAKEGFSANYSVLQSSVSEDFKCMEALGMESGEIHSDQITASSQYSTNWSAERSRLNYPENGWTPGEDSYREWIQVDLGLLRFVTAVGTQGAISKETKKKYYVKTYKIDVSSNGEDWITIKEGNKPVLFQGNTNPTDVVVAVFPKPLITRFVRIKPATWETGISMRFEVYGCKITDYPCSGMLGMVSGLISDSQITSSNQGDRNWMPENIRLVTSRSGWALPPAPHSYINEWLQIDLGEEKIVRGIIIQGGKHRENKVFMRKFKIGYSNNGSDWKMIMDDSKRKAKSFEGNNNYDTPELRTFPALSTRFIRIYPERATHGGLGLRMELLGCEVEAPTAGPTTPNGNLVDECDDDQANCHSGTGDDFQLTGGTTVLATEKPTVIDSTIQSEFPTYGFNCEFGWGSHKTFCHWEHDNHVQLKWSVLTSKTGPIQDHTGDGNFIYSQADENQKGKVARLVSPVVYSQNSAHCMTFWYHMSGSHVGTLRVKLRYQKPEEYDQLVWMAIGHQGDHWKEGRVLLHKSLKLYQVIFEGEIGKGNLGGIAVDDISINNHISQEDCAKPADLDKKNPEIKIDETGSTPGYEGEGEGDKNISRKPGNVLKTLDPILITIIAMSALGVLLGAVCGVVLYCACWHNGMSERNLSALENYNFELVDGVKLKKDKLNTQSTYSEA

Regarding `CCc1nnc(NC(=O)CSc2nnc(-c3ccccc3)n2-c2ccccc2)s1`, the inhibition in assay [1] came out at 4.8%.
As to `CCc1nnc(NC(=O)CSc2nnc(-c3ccccc3)n2-c2cccc(F)c2)s1`, the inhibition in assay [1] stood at 6%.
Turning to `N=C(N)NCCC[C@H](NC(=O)c1sccc1NS(=O)(=O)c1cccc2nsnc12)C(=O)O`, in assay [2], the pIC50 was 4.90 to 4.95. Also, the inhibition in assay [3] was in the range of 49.1 to 49.8%. The inhibition entry in assay [4] is “Active”.
With `O=C(CSc1nnc(-c2ccccc2)n1-c1cccc(Cl)c1)Nc1nccs1`, the inhibition in assay [1] was determined as 4%.
For the compound `CCc1nnc(NC(=O)CSc2nnc(-c3ccccc3)n2-c2cccc(Cl)c2)s1`, the inhibition in assay [1] was found to be 47.6%.
With `O=C(CSc1nnc(-c2ccccc2)n1-c1cccc(Cl)c1)Nc1nncs1`, the inhibition in assay [1] stood at 20.3%.
For the compound `CCc1nnc(NC(=O)CSc2nnc(-c3ccc(C)cc3)n2-c2cccc(C)c2)s1`, the pIC50 in assay [2] was 4.72. Besides, the inhibition in assay [1] was determined as 76%. Besides, the inhibition result in assay [4] was “Active”.
As to `CCc1nnc(NC(=O)CSc2nnc(-c3ccccc3)n2-c2ccccc2Cl)s1`, the inhibition in assay [1] turned out to be 5.3%.
In assay [5], `Cc1ccc(-c2nc3ccccc3[nH]2)cc1NC(=S)NC(=O)c1ccc2c(c1)OCCO2` gave a pIC50 of 4.47.
Consider `CCc1nnc(NC(=O)CSc2nnc(-c3cccc(C)c3)n2-c2cccc(C)c2)s1`, for which the inhibition in assay [1] worked out at 12.6%.
Consider `CCc1nnc(NC(=O)CSc2nncn2-c2cccc(Cl)c2)s1`, for which the inhibition in assay [1] came to 0%.
The same measure, in the same setting: as for `CCc1nnc(NC(=O)CSc2nnc(-c3ccc(N)cc3)n2-c2cccc(C)c2)s1`, the figure is 15.4%.
Same read-out and setting: with `CCc1nnc(NC(=O)CSc2nnc(-c3ccccc3)n2-c2ccc(Cl)cc2)s1` the figure was 3.2%.
For the compound `CCc1nnc(NC(=O)CSc2nnc(-c3ccccc3)n2-c2cccnc2)s1`, in assay [1], the inhibition amounted to 0%.
As for `CCc1nnc(NC(=O)CSc2nnc(-c3cccnc3)n2-c2cccc(C)c2)s1`, the inhibition in assay [1] was determined as 0%.
Take `CCc1nnc(NC(=O)CSc2nnc(Cc3ccccc3)n2-c2cccc(C)c2)s1`: the inhibition in assay [1] was 4.3%.
Regarding `CCOc1ccccc1NC(=O)c1ccc(C)c(S(=O)(=O)Nc2ccc(C)cc2)c1`, in assay [6], the inhibition is 32%.
As to `CCc1nnc(NC(=O)CSc2nnc(-c3ccc(Cl)cc3)n2-c2cccc(C)c2)s1`, in assay [1], the inhibition amounted to 37.4%.
Regarding `COCc1nnc(NC(=O)CSc2nnc(-c3ccccc3)n2-c2cccc(C)c2)s1`, the inhibition in assay [1] is 10.3%.
Regarding `O=C(CSc1nnc(-c2ccccc2)n1-c1cccc(Cl)c1)Nc1nnc(C2CC2)s1`, the inhibition in assay [1] worked out at 22.5%.
In the case of `CCc1nnc(NC(=O)CSc2nnc(-c3ccccc3)n2-c2cccc(C)c2)s1`, the pIC50 in assay [2] is 4.39. The inhibition in assay [1] came to 66.6%.
With `CCc1nnc(NC(=O)CSc2nnc(-c3ccccc3)[nH]2)s1`, the inhibition in assay [1] worked out at 2.1%.
With `Cc1cccc(-n2c(SCC(=O)Nc3nnc(C)s3)nnc2-c2ccccc2)c1`, the inhibition in assay [1] stood at 31.5%.
With `CCc1nnc(NC(=O)CSc2nnc(-c3ccc(O)cc3)n2-c2cccc(C)c2)s1`, the pIC50 in assay [2] is 4.38. In addition, the inhibition in assay [1] worked out at 59.9%.
For the compound `CCc1nnc(NC(=O)CSc2nnc(-c3ccccc3)n2Cc2cccc(C)c2)s1`, the inhibition in assay [1] stood at 4.1%.
As for `CCc1nnc(NC(=O)CSc2nnc(-c3ccccc3)n2-c2cccc(OC)c2)s1`, the inhibition in assay [1] is 0%.
In the case of `CCCc1nnc(NC(=O)CSc2nnc(-c3ccccc3)n2-c2cccc(C)c2)s1`, the inhibition in assay [1] is 47.8%.

Values taken from ChEMBL document CHEMBL4609981, “Discovery of novel nonpeptide small-molecule NRP1 antagonists: Virtual screening, molecular simulation and structural modification” (Bioorg Med Chem, 2020).
